Results taken from the supplement of paper PMC10307832.

Assays:
Assay in all cases: relative viability (nuclei count vs DMSO), 5 days (fraction); higher = more cells survive
Carboplatin + Decitabine = compound: C1CC(C1)(C(=O)O)C(=O)O.[NH2-].[NH2-].[Pt+2] [Carboplatin] + Nc1ncn([C@H]2C[C@H](O)[C@@H](CO)O2)c(=O)n1 [Decitabine] (partner 2 µM)
Summary of the method: (§1)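 Relative viability divides the nuclei count in treated wells by that in vehicle wells. Lung cancer cell lines were seeded in 1536-well plates, dosed by pin tool the next day, and fixed and stained after 5 days in one step with final 0.05% Triton X-100, 1% formaldehyde and 1 ug/ml Hoechst. Dosing was a single drug or a fixed anchor-drug dose plus five library-drug doses (not always all listed) in √10 steps, and values are medians of duplicate plates imaged at 4×.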

GSK126 + Olaparib = compound: CC[C@H](C)N1C=C(C2=C(C=C(C=C21)C3=CN=C(C=C3)N4CCNCC4)C(=O)NCC5=C(C=C(NC5=O)C)C)C [GSK126] + O=C(c1cc(Cc2n[nH]c(=O)c3ccccc23)ccc1F)N1CCN(C(=O)C2CC2)CC1 [Olaparib] (partner 8 µM)
Summary of the method: as §1

MLN4924 + Crizotinib = compound: NS(=O)(=O)OC[C@@H]1C[C@@H](n2ccc3c(N[C@H]4CCc5ccccc54)ncnc32)C[C@@H]1O [MLN4924] + C[C@@H](Oc1cc(-c2cnn(C3CCNCC3)c2)cnc1N)c1c(Cl)ccc(F)c1Cl [Crizotinib] (partner 1 µM)
Summary of the method: as §1

MLN4924 + Linsitinib = compound: NS(=O)(=O)OC[C@@H]1C[C@@H](n2ccc3c(N[C@H]4CCc5ccccc54)ncnc32)C[C@@H]1O [MLN4924] + C[C@]1(O)C[C@@H](c2nc(-c3ccc4ccc(-c5ccccc5)nc4c3)c3c(N)nccn32)C1 [Linsitinib] (partner 1 µM)
Summary of the method: as §1

Cell Line	relative viability (Carboplatin + Decitabine; first compound 0.08 µM)	relative viability (Carboplatin + Decitabine; first compound 0.253 µM)	relative viability (Carboplatin + Decitabine; first compound 0.8 µM)	relative viability (Carboplatin + Decitabine; first compound 2.53 µM)	relative viability (Carboplatin + Decitabine; first compound 8 µM)	relative viability (GSK126 + Olaparib; first compound 0.08 µM)	relative viability (GSK126 + Olaparib; first compound 0.253 µM)	relative viability (GSK126 + Olaparib; first compound 0.8 µM)	relative viability (GSK126 + Olaparib; first compound 2.53 µM)	relative viability (GSK126 + Olaparib; first compound 8 µM)	relative viability (MLN4924 + Crizotinib; first compound 0.04 µM)	relative viability (MLN4924 + Crizotinib; first compound 0.1265 µM)	relative viability (MLN4924 + Crizotinib; first compound 0.4 µM)	relative viability (MLN4924 + Crizotinib; first compound 1.265 µM)	relative viability (MLN4924 + Crizotinib; first compound 4 µM)	relative viability (MLN4924 + Linsitinib; first compound 0.04 µM)	relative viability (MLN4924 + Linsitinib; first compound 0.1265 µM)	relative viability (MLN4924 + Linsitinib; first compound 0.4 µM)	relative viability (MLN4924 + Linsitinib; first compound 1.265 µM)	relative viability (MLN4924 + Linsitinib; first compound 4 µM)
HCC-44	0.968	0.915	0.949	0.923	0.863	1.01	1.02	1.03	0.92	1	0.65	0.527	0.189	0.168	0.155	0.561	0.219	0.199	0.156	0.129
HCC-78	0.659	0.61	0.709	0.656	0.73	0.742	0.822	0.807	0.822	0.617	0.394	0.451	0.739	0.159	0.172	0.556	0.355	0.628	0.135	0.147
HCC-366	0.322	0.32	0.336	0.251	0.203	0.451	0.386	0.366	0.396	0.342	0.603	0.66	0.797	0.211	0.0183	0.838	0.933	0.513	0.0247	0.0197
HCC-827	0.354	0.321	0.248	0.19	0.304	0.725	0.642	0.617	0.726	0.601	0.836	0.658	0.61	0.247	0.178	0.801	0.527	0.468	0.228	0.211
HOP-62	0.234	0.223	0.243	0.195	0.214	0.447	0.506	0.414	0.455	0.428	0.701	0.261	0.167	0.0427	0.0866	0.433	0.272	0.151	0.0627	0.0635
IA-LM						1.03	0.832	0.99	0.759	0.75	0.314	0.211	0.134	0.0572	0.0763	0.252	0.197	0.155	0.0583	0.0889
LC-2-ad	0.753	0.93	0.708	0.776	0.64	0.703	0.698	0.67	0.712	0.357	0.517	0.419	0.341	0.264	0.156	0.854	0.533	0.281	0.162	0.13
LCLC-97TM1	0.299	0.206	0.208	0.218	0.191	0.494	0.596	0.413	0.507	0.445	0.27	0.202	0.151	0.123	0.0984	0.191	0.23	0.156	0.103	0.131
NCI-H522	0.646	0.685	0.614	0.655	0.644	0.61	0.599	0.639	0.611	0.699										
NCI-H1299						1	0.93	0.922	0.921	0.976	0.875	0.825	0.4	0.252	0.246	0.903	0.768	0.441	0.189	0.186
NCI-H1395	0.797	0.747	0.63	0.584	0.516	0.468	0.465	0.438	0.456	0.414						0.991	0.771	0.605	0.384	0.377
NCI-H1563											1.1	1.14	1.01	0.579	0.552	1.73	1.18	0.753	0.606	0.6
NCI-H1648	0.542	0.475	0.542	0.435	0.46	1.01	1.22	0.774	1.1	0.908										
NCI-H1650	0.426	0.498	0.425	0.365	0.308	0.742	0.849	0.761	0.784	0.901	1.04	0.658	0.333	0.202	0.166					
NCI-H1703						0.576	0.351	0.694	0.455	0.492	0.214	0.159	0.187	0.109	0.0907	0.235	0.241	0.157	0.111	0.146
NCI-H1793	0.464	0.538	0.503	0.452	0.357	0.931	0.8	0.732	1.24	0.989						1.12	0.857	0.845	0.327	0.168
NCI-H2170	0.507	0.476	0.465	0.428	0.343	0.603	0.669	0.559	0.54	0.529	1.2	0.599	0.507	0.16	0.185					
NCI-H2228						0.649	0.75	0.511	0.669	0.691		0.443	0.4	0.192	0.226		0.419	0.355	0.163	0.18
NCI-H2342	0.675	0.729	0.661	0.721	0.594	0.447	0.501	0.392	0.424	0.469										
SW 900	0.431	0.361	0.42	0.395	0.377	0.909	0.751	0.866	0.885	0.888										
